Key:
Solubility in fish oil = format: physicochemical
Description: The compounds of formulae (4), (6), (8) and (9) were evaluated primarily for their oxidative stability by the Oil Stability Index (OSI) measurements. Two different levels of these antioxidants (0.5 and 2 mg/g) were used in 5 g of natural fish oil (Product code: FG30TG) and used in the Oxidative Stability Instrument at 80° C. with the air flow rate of 40 psi. The solubility of different amounts and types of antioxidants used in OSI was checked before and after the application. […]

[1] = Oil Stability Index (OSI) in fish oil, Example 12; conditions: for OSI / Protection Factor (%): FG30TG fish oil
Description: The compounds of formulae (4), (6), (8) and (9) were evaluated primarily for their oxidative stability by the Oil Stability Index (OSI) measurements. Two different levels of these antioxidants (0.5 and 2 mg/g) were used in 5 g of natural fish oil (Product code: FG30TG) and used in the Oxidative Stability Instrument at 80° C. with the air flow rate of 40 psi. The solubility of different amounts and types of antioxidants used in OSI was checked before and after the application.
The compounds of formulae (6) and (9) (see Table 14 below), compound of formula (4) (see Table 15 below) and compound of formula (8) (see Table 16 below) were used at different times in the Oxidative Stability instruments under similar operational conditions used for fish oil evaluations. MNT and the oil without any antioxidants (“Blank”) were always used to compare. Also, the synergistic effect of only oil soluble compounds with ascorbyl palmitate was determined using the OSI values. The polymers generated at the end of the experiment were determined by LC (LC=liquid chromatography).
The Protection Factors (PF) for each compound in oil were calculated in percentage as: […]

[2] = Storage stability in fish oil (PV, p-AV, CD), Example 12; conditions: FG30TG, 2 mg/g
Description: Tables 25, 26 and 27 show the PV (peroxide value), p-AV (p-anisidine value) and CD (Conjugated dienoic acid %) of the fish oil samples stabilized with compounds of formulae (6), (8) and (9), respectively.
For the storage stability study oil soluble compounds were used in fish oil at 2 mg/g level only. […] There was no considerable variation in p-AV and CD (Tables 26-27) during the storage.

[3] = Oxipres antioxidant efficacy value (EV) in fish meal; conditions: Oxipres 70° C., 5 bar O2, equimolar to BHT; EV relative to BHT (EV=1)
Description: (§1) Oxidative stability was assessed using an Oxipres (Mikrolab Aarhus A/S, Hojbjerg, Denmark). The ML OXIPRES® is designed to monitor the oxidation of heterogeneous products. Consumption of oxygen results in a pressure drop which is measured by means of pressure transducers. The samples are heated to accelerate the process and shorten the analysis time (Mikrolab Aarhus 2012).
(§2) Sample weights were 50 g. They were loaded into the Oxipres vessels and placed inside the stainless-steel pressure vessel and sealed. The pressure vessels were purged with pure oxygen and filled to an initial oxygen pressure of 5 bar and maintained at 70° C. during measurement (D. Ying, L. Edin, L. Cheng, L. Sanguansri, M. A. Augustin, LWT—Food Science and Technology 2015, 62, 1105-1111: “Enhanced oxidative stability of extruded product containing polyunsaturated oils.”).
(§3) The oxygen pressure was recorded as function of time. After sample load and temperature rise the pressure in the device is increasing within 10 hours up to the starting pressure. Thereafter it is decreasing. Consequently, the starting pressure is considered as being the pressure after 10 hours. The analysis ends after 130 hours at 70° C. The oxygen consumption ‘O2’ of the tested sample is calculated as follows: […]
(§4) A factor of protection called ‘EV’ (Efficacy Value) was developed to quantify with a relative number (relative to BHT) the antioxidant effect of the tested candidates. EV was calculated as follows:
(§5) EV, being relative to BHT (3,5-di-tert-butyl-4-hydroxy-toluene) (EV=1), makes it possible to compare the antioxidant compounds in a defined feed application.
(§6) Each of the compounds of formulae (1) to (6) were mixed into each matrix 1, 2 or 3 (pet food, poultry meal, fish meal) in an equimolar ratio compared to BHT. Batches of 200 g feed were produced in order to handle a minimum of 30 mg of antioxidant. First, a 1% pre-dilution of the antioxidant with the feed material was made. Then this pre-dilution was added to the final batch, mixed, sieved (1.25 mm sieve) and mixed using a turbula mixer. Thereafter 55 g of the final batch were packed into polyethylene bags, and stored at 4° C. until start of the Oxipres assay. Spare sample were stored at 4° C. Compound of formula (3) was measured in all three matrices. Compound of formula (1) was measured in matrix 1 and 2. Compound of formula (2) was measured in matrix 2. Compounds of formulae (4), (5) and (6) were measured in matrix 3. An efficacy value 0.7 has been considered as acceptable, an efficacy value ≥ the efficacy value of alpha-tocopherol as good, and an efficacy value ≥ the efficacy value of BHT as very good.

[4] = Oxipres antioxidant efficacy value (EV) in poultry meal; conditions: Oxipres 70° C., 5 bar O2, equimolar to BHT; EV relative to BHT (EV=1)
Description: as §1, §2, §3, §4, §5, §6

[5] = Oil Stability Index (OSI) in fish oil, Example 13; conditions: for OSI: Table 28, FG30TG fish oil, 80° C.; for Protection Factor (%): Table 34, fish oil (80° C.); for antioxidant activity (OSI) in fish oil compared with MNT: Example 13, 0.5 and 2 mg/g
Description: The compounds of formulae (3) and (7) were used in both fish and algal oils to see their antioxidant effect in these oils. Antioxidant effect was determined using mainly the Oil Stability Index (OSI). Two concentration levels were used: 0.5 mg/g (low level) and 2 mg/g (high level), respectively, have been added to 5 g of oil and used in the Oxidative Stability Instrument operated at 80° C. with the continuous air flow rate at ˜40 psi. All samples were run in duplicate. The Protection Factors (PF) for each compound, as percentage, in oil were calculated as, [formula]

[6] = Storage stability in fish oil (PV, p-AV), Example 13; conditions: storage at 25° C.
Description: A storage stability study was performed to compare the variation of primary oxidation products, the hydroperoxides, generated during oxidation, measured in terms of peroxide value (PV) and the secondary oxidation products which were measured and determined as anisidine reactive substances or p-anisidine value (p-AV) of oil samples containing these compounds.
The two different concentrations of compounds of formulae (3) and (7) were used for the storage stability study. Each compound and MNT were added, each individually, to 40 g of fish oil samples in 60 ml amber bottles at 0.5 mg/g and 2 mg/g levels, thoroughly mixed and stored at ambient temperature for 19 days. All sample bottles were stored open to air, away from light. […] Peroxide values (PV) and p-anisidine values (p-AV) were determined at different times for 19 days.

[7] = Oil Stability Index (OSI) in crude algal oil, Example 13; conditions: for OSI: Table 33, crude algal oil (contained about 1.6 mg/g MNT prior to use), 80° C.; for Protection Factor (%): Table 35, crude algal oil (80° C.)
Description: The compounds of formulae (3) and (7) were used in both fish and algal oils to see their antioxidant effect in these oils. Antioxidant effect was determined using mainly the Oil Stability Index (OSI).
Two concentration levels were used: 0.5 mg/g (low level) and 2 mg/g (high level), respectively, have been added to 5 g of oil and used in the Oxidative Stability Instrument operated at 80° C. with the continuous air flow rate at ˜40 psi. All samples were run in duplicate. The Protection Factors (PF) for each compound, as percentage, in oil were calculated as,
The Oil Stability Indices (OSI) of crude algal oil with levels of 0.5 mg/g and 2 mg/g of compounds of formulae (3) or (7) are shown in Table 33.

CC(C)CCCC(C)CCCC1(C)CCc2cc(O)ccc2O1 (stereo not shown) [Compound of formula (8), 2-(4,8-dimethylnonyl)-2-methyl-chroman-6-ol]
Solubility in fish oil, 80° C. (Solubility in fish oil; 0.5 mg/g): soluble | Solubility in fish oil, Room temp. (Solubility in fish oil; 0.5 mg/g): soluble | Solubility in fish oil, 80° C. (Solubility in fish oil; 2.0 mg/g): soluble | Solubility in fish oil, Room temp. (Solubility in fish oil; 2.0 mg/g): soluble | OSI ([1]; Table 16, 80° C., 0.5 mg/g): 5.48 h | OSI ([1]; Table 16, 80° C., 2 mg/g): 5.96 h | Protection Factor (%) ([1]; Table 19, 0.5 mg/g): 15.42% | Protection Factor (%) ([1]; Table 19, 2 mg/g): 25.89% | OSI ([1]; Table 21, 2 mg/g + 0.5 mg/g of AP (ascorbyl palmitate)): 7.03 h | OSI ([1]; Table 21, 2 mg/g, without AP): 6.58 h | Protection Factor (%) ([1]; Table 23, 2 mg/g + 0.5 mg/g of AP): 130% | Protection Factor (%) ([1]; Table 23, 2 mg/g, without AP): 145% | CD (conjugated dienoic acid in %) ([2]; 4 days): 0.6% | PV (peroxide value) ([2]; 4 days): 1.6 | p-AV (p-anisidine value) ([2]; 4 days): 10.3 | CD (conjugated dienoic acid in %) ([2]; 6 days): 0.6% | PV (peroxide value) ([2]; 6 days): 1.8 | p-AV (p-anisidine value) ([2]; 6 days): 9.8 | CD (conjugated dienoic acid in %) ([2]; 8 days): 0.2% | PV (peroxide value) ([2]; 8 days): 3.1 | p-AV (p-anisidine value) ([2]; 8 days): 10 | CD (conjugated dienoic acid in %) ([2]; 11 days): 0.7% | PV (peroxide value) ([2]; 11 days): 3.7 | p-AV (p-anisidine value) ([2]; 11 days): 10.4 | CD (conjugated dienoic acid in %) ([2]; 13 days): 0.7% | PV (peroxide value) ([2]; 13 days): 8.7 | p-AV (p-anisidine value) ([2]; 13 days): 10.6 | CD (conjugated dienoic acid in %) ([2]; 15 days): 0.8% | PV (peroxide value) ([2]; 17 days): 11.5 | p-AV (p-anisidine value) ([2]; 17 days): 11 | CD (conjugated dienoic acid in %) ([2]; Initial): 0.7% | PV (peroxide value) ([2]; Initial): 0.9 | p-AV (p-anisidine value) ([2]; Initial): 9.9

COc1cc2c(cc1O)CCC(C)(C)O2 [Compound of formula (4), 7-Methoxy-2,2-Dimethyl-6-Chromanol]
EV in Fish meal [3]: 1.05 | OSI ([1]; Table 15, 80° C., 0.5 mg/g): 4.98 h | OSI ([1]; Table 15, 80° C., 2 mg/g): 5.95 h | Protection Factor (%) ([1]; Table 18, 0.5 mg/g): 4.74% | Protection Factor (%) ([1]; Table 18, 2 mg/g): 25.26% | antioxidant effect (OSI) in fish oil compared with MNT ([1]; fish oil, Example 12, same level of MNT): lower OSI values than those of MNT

Cc1c(C)c2c(c(C)c1O)CCC(C)(C)O2 [Compound of formula (5), 2,2,5,7,8-pentamethyl-chroman-6-ol]
EV in Fish meal [3]: 1.08

CC1CCc2cc(O)ccc2O1 (stereo not shown) [Compound of formula (2), 2-methyl-chroman-6-ol]
EV in poultry meal [4]: 1.09

CC(C)CCCC1(C)CCc2cc(O)ccc2O1 (stereo not shown) [Compound of formula (7), 2-(4-methylpentyl)-2-methyl-chroman-6-ol]
Solubility in oil (Solubility in fish oil; fish oil, 0.5 and 2 mg/g, mixed around 40° C. to dissolve completely): not readily soluble in oil | OSI ([5]; 0.5 mg/g): 6.15 h | OSI ([5]; 2 mg/g): 7.23 h | Protection Factor (%) ([5]; 0.5 mg/g): 23% | Protection Factor (%) ([5]; 2 mg/g): 44.5% | antioxidant activity (OSI) in fish oil compared with MNT [5]: comparable in activity with MNT | Peroxide values (PV, meq/kg) ([6]; 0.5 mg/g level, 1 day): 1 meq/kg | p-Anisidine value (p-AV) ([6]; 0.5 mg/g level, 1 day): 9.5 | Peroxide values (PV, meq/kg) ([6]; 0.5 mg/g level, 5 days): 2 meq/kg | p-Anisidine value (p-AV) ([6]; 0.5 mg/g level, 5 days): 9.8 | Peroxide values (PV, meq/kg) ([6]; 0.5 mg/g level, 8 days): 6.4 meq/kg | p-Anisidine value (p-AV) ([6]; 0.5 mg/g level, 8 days): 11.1 | Peroxide values (PV, meq/kg) ([6]; 0.5 mg/g level, 14 days): 11.8 meq/kg | p-Anisidine value (p-AV) ([6]; 0.5 mg/g level, 14 days): 12.4 | Peroxide values (PV, meq/kg) ([6]; 0.5 mg/g level, 19 days): 19.5 meq/kg | p-Anisidine value (p-AV) ([6]; 0.5 mg/g level, 19 days): 12.9 | Peroxide values (PV, meq/kg) ([6]; 0.5 mg/g level, Initial): 1 meq/kg | p-Anisidine value (p-AV) ([6]; 0.5 mg/g level, Initial): 9.4 | Peroxide values (PV, meq/kg) ([6]; 2 mg/g level, 1 day): 1 meq/kg | p-Anisidine value (p-AV) ([6]; 2 mg/g level, 1 day): 9.3 | Peroxide values (PV, meq/kg) ([6]; 2 mg/g level, 5 days): 1.9 meq/kg | p-Anisidine value (p-AV) ([6]; 2 mg/g level, 5 days): 9.3 | Peroxide values (PV, meq/kg) ([6]; 2 mg/g level, 8 days): 8.2 meq/kg | p-Anisidine value (p-AV) ([6]; 2 mg/g level, 8 days): 11.1 | Peroxide values (PV, meq/kg) ([6]; 2 mg/g level, 14 days): 16.4 meq/kg | p-Anisidine value (p-AV) ([6]; 2 mg/g level, 14 days): 11.9 | Peroxide values (PV, meq/kg) ([6]; 2 mg/g level, 19 days): 27.3 meq/kg | p-Anisidine value (p-AV) ([6]; 2 mg/g level, 19 days): 12.9 | Peroxide values (PV, meq/kg) ([6]; 2 mg/g level, Initial): 1 meq/kg | p-Anisidine value (p-AV) ([6]; 2 mg/g level, Initial): 9.4 | OSI ([7]; 0.5 mg/g): 16.38 h | OSI ([7]; 2 mg/g): 18.53 h | Protection Factor (%) ([7]; 0.5 mg/g): 9.2% | Protection Factor (%) ([7]; 2 mg/g): 23.5%

6-Hydroxy-7-Methoxy-2,2-Dimethyl-Chroman-4-One [Compound of formula (10)]
antioxidant activity (OSI) in fish oil compared with MNT [5]: comparable antioxidant activity to MNT

Source: patent publication US20210030022A1, “NOVEL USE OF SUBSTITUTED CHROMAN-6-OLS” (DSM IP ASSETS B.V., priority 2018, published 2021)
